Molecules are shown by their SMILES.

For test [1], the target named is T1, LXRα full length (FL) (Homo sapiens, UniProt Q13133).
T1 construct: the full length (FL) proteins of LXRα (amino acids 1-447); NP005684; expressed in transfected cells; host or cells: HEK293
T1 sequence (Q13133 1-447): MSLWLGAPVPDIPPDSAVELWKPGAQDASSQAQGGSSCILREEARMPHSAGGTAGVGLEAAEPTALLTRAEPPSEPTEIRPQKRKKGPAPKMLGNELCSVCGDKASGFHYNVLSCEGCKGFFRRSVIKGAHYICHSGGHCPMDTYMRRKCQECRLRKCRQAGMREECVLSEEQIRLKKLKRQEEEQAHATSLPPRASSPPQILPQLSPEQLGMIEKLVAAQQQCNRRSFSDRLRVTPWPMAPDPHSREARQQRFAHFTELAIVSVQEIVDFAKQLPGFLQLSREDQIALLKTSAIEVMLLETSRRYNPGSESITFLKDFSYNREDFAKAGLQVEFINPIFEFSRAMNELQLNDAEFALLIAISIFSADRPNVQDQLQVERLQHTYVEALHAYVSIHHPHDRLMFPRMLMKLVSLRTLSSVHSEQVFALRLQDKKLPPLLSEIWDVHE
Put plainly: LXR Gal4 reporter transient transfection assay, mammalian two-hybrid, FL-M2H Gal4α. It counts as cell-based. The following applies: HEK293 cells; inverse agonist unless *. Put shortly: (§1)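 HEK293 cells transiently cotransfected with NFkB-AD fusions of full-length or LBD LXRα/β, GAL4-DBD fusions of SRC1 coactivator or NCoR corepressor domains, GAL4-driven firefly luciferase and Renilla control. Compound added 4 h post-transfection (≤0.2% DMSO), 16 h incubation; firefly and Renilla luminescence read sequentially.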

Test [2] has as its target T2, GST-LXRβ ligand-binding domain (Homo sapiens, UniProt P55055, INS174Q).
T2 construct: amino acids 156-461; NP009052; made in house; host or cells: E. coli
T2 sequence (P55055 with tags, fused parts or gaps INS174Q limits assumed): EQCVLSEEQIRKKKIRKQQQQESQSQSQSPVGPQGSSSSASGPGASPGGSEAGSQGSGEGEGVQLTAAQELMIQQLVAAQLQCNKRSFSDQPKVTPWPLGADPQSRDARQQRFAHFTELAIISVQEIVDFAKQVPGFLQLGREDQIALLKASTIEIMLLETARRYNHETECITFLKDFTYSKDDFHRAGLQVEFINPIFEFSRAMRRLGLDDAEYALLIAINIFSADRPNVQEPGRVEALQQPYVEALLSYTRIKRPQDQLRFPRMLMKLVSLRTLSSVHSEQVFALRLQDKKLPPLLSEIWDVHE
Nature of the test: TR-FRETβ activity assay (NCoA3 coactivator peptide recruitment). The following applies: 1 μM 24(S)-25-epoxycholesterol as prestimulating agonist; inverse agonist unless *. It counts as biochemical. Put shortly: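 E. coli-expressed GST-LXRβ LBD (aa 156-461, 76 nM) with biotinylated NCoA3 peptide (400 nM), anti-GST-Tb cryptate donor and streptavidin-XL665 acceptor in 240 mM KCl, BSA, 0.002% Triton X-100. Equilibrated 1 h at 4° C; TR-FRET read at 615/665 nm, triplicates.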

The target in test [3] is T3, LXRβ full length (FL) (Homo sapiens, UniProt P55055, INS174Q).
T3 construct: the full length (FL) proteins of LXRα (amino acids 1-447); NP005684; NP009052; expressed in transfected cells; host or cells: HEK293
T3 sequence (P55055 with tags, fused parts or gaps INS174Q): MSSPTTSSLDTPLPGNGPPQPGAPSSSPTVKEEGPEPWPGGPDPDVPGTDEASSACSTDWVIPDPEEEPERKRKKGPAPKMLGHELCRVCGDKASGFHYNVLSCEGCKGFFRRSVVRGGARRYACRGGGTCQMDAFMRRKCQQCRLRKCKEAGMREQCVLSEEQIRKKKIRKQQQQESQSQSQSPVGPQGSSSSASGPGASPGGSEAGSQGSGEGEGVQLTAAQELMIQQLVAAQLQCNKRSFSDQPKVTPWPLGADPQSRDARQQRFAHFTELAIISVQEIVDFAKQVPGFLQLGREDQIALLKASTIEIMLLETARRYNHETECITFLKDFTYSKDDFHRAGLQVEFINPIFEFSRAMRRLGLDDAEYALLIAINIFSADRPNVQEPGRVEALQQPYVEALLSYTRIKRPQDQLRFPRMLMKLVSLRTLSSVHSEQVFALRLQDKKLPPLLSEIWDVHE
Put plainly: LXR Gal4 reporter transient transfection assay, mammalian two-hybrid, FL-M2H Gal4β. It counts as cell-based. The settings on record: HEK293 cells; inverse agonist unless *. In a few lines:
as §1

Usually EC50 stands for the concentration giving half of the maximal effect. Lower therefore signals greater potency. In the case of `Cc1ccc2ccccc2c1C(=O)N(Cc1ccc(-c2cccc(S(=O)(=O)CC(=O)O)c2)cc1)Cc1ccc(C#N)o1` [27/2], the EC50 in test [1], in test [2] and in test [3] was 1 to 10 µM each time.
Regarding `Cc1ccc(CN(Cc2ccc(-c3cccc(C(C)(C)C(=O)O)c3)cc2)C(=O)c2c(C)c(C)nc3cccnc23)o1` [27/132], the figures for the EC50 in test [1], in test [2] and in test [3] were 0.1 to 1 µM, 1 to 10 µM and less than 0.1 µM, respectively.
For the molecule `COc1nc(-c2cccc(C(C)(C)C(=O)O)c2)ccc1CN(Cc1ccc(C(F)(F)F)o1)C(=O)c1c(C)ccc2ccccc12` [27/77], the EC50 in test [1] is less than 0.1 µM; in test [2] it was 1 to 10 µM; in test [3], less than 0.1 µM.
On to `CCc1cc(C)cc(C)c1CN(Cc1ccc(-c2cccc(S(=O)(=O)CC(=O)O)c2)cc1)Cc1ccc(C(F)(F)F)o1` [27/35], for which the EC50 in test [1] was 1 to 10 µM; in test [2], 1 to 10 µM; in test [3], 0.1 to 1 µM.
With `Cc1cc(C)c(CN(Cc2ccc(-c3cccc(S(=O)(=O)CC(=O)NO)c3)cc2)Cc2ccc(C(F)(F)F)o2)c(C)c1` [Example 5, N-Hydroxy-2-((4′-((((5-(trifluoromethyl)furan-2-yl)methyl)(2,46-trimethylbenzyl)amino)methyl)-[1,1′-biphenyl]-3-yl)sulfonyl)acetamide], the EC50 in test [1], in test [2] and in test [3] was 0.1 to 1 µM each time.
In the case of `Cc1ccc2ccccc2c1C(=O)N(Cc1ccc(-c2cccc(C3(C(=O)O)CC3)c2)cc1)Cc1ccc(C(F)(F)F)o1` [27/75], the EC50 was less than 0.1 µM in test [1], 0.1 to 1 µM in test [2] and less than 0.1 µM in test [3].
With `Cc1cc(C)c(CN(Cc2ccc(C(F)(F)F)o2)Cc2ccc(-c3cccc(S(=O)(=O)CC(=O)O)c3)cc2F)c(C)c1` [Example 15, 2-((3′-Fluoro-4′-((((5-(trifluoromethyl)furan-2-yl)methyl)(2,4,6-trimethylbenzyl)amino)methyl)-[1,1′-biphenyl]-3-yl)sulfonyl)acetic acid], the EC50 is 0.1 to 1 µM in test [1], 1 to 10 µM in test [2] and 0.1 to 1 µM in test [3].
Turning to `Cc1nc2ccc(=O)[nH]c2c(C(=O)N(Cc2ccc(-c3cccc(C(C)(C)C(=O)O)c3)cc2)Cc2ccc(C(F)(F)F)o2)c1C` [Example 36, 2-(4′-((2,3-Dimethyl-6-oxo-N-((5-(trifluoromethyl)furan-2-yl)methyl)-5,6-dihydro-1,5-naphthyridine-4-carboxamido)methyl)-[1,1′-biphenyl]-3-yl)-2-methylpropanoic acid], the EC50 in test [1], in test [2] and in test [3] was 1 to 10 µM each time.
Turning to `CC(C)(C(=O)O)c1cccc(-c2ccc(CN(Cc3ccc(C(F)(F)F)o3)C(C)(C)c3cccc4ccccc34)cc2)c1` [27/39], the concentration for a half-maximal effect (EC50) in test [1] is 0.1 to 1 µM; in test [2], less than 0.1 µM; in test [3] it was less than 0.1 µM.
Turning to `CCOC(=O)OC(OC(=O)C(C)(C)c1cccc(-c2ccc(CN(Cc3ccc(C(F)(F)F)o3)C(=O)c3c(C)ccc4ccccc34)cc2)c1)C(C)C` (stereo not drawn) [Example 31, 1-((Ethoxycarbonyl)oxy)-2-methylpropyl 2-methyl-2-(4′-((2-methyl-N-((5-(trifluoromethyl)furan-2-yl)methyl)-1-naphthamido)methyl)-[1,1′-biphenyl]-3-yl)propanoate], the concentration giving a half-maximal response (EC50) in test [1] was less than 0.1 µM; in test [2], 1 to 10 µM; in test [3], less than 0.1 µM.
Take `Cc1nc2cccnc2c(C(=O)N(Cc2ccc(-c3cccc(C(C)(C)C(=O)O)c3)cc2)Cc2ccc(C(F)F)o2)c1C` [27/126]: the half-maximal effective concentration (EC50) is less than 0.1 µM in test [1], 0.1 to 1 µM in test [2] and 0.1 to 1 µM in test [3].
In the case of `COC(C)(C(=O)O)c1cccc(-c2ccc(CN(Cc3ccc(C(F)(F)F)o3)C(=O)c3c(C)ccc4ccccc34)cc2)c1` (stereo not drawn) [27/11], the results for the 50% effective concentration (EC50) in test [1], in test [2] and in test [3] were less than 0.1 µM, 1 to 10 µM and less than 0.1 µM, respectively.
Turning to `Cc1ccc2ccccc2c1C(=O)N(Cc1ccc(-c2cccc(S(=O)(=O)CC(=O)O)c2)cc1)Cc1ccc(C(F)(F)F)[nH]1` [27/3], the EC50 in test [1], in test [2] and in test [3] was 1 to 10 µM each time.
As for `Cc1ccc2ncnn2c1C(=O)N(Cc1ccc(-c2cccc(C(C)(C)C(=O)O)c2)cc1)Cc1ccc(C(F)(F)F)o1` [27/121], the EC50 in test [1], in test [2] and in test [3] was less than 0.1 µM in each case.
Regarding `CONC(=O)CS(=O)(=O)c1cccc(-c2ccc(CN(Cc3ccc(C(F)(F)F)o3)Cc3c(C)cc(C)cc3C)cc2)c1` [Example 5/1], the EC50 in test [1], in test [2] and in test [3] was 0.1 to 1 µM throughout.
For the molecule `Cc1nc2cccnc2c(C(=O)N(Cc2ccc(C(F)(F)F)o2)Cc2ccc(-c3cccc(C(C)(C)C(=O)O)c3)cc2C#N)c1C` [27/109], the EC50 in test [1] was in the range of 0.1 to 1 µM; in test [2], 1 to 10 µM; in test [3], 0.1 to 1 µM.
For `Cc1ccc2ccccc2c1C(=O)N(Cc1ccc(C(F)(F)F)o1)Cc1ccc(-c2cccc(S(=O)(=O)CC(=O)O)c2)cc1Cl` [27/59], the EC50 in test [1], in test [2] and in test [3] was 0.1 to 1 µM in each case.
As for `COc1cc(-c2cccc(C(C)(C)C(=O)O)c2)ccc1CN(Cc1ccc(C(F)(F)F)o1)C(=O)c1c(C)c(C)nc2cccnc12` [27/108], the EC50 is less than 0.1 µM in test [1], 0.1 to 1 µM in test [2] and less than 0.1 µM in test [3].
Take `Cc1ccc2ccccc2c1C(=O)N(Cc1ccc(-c2cccc([C@H](C)C(=O)O)c2)cc1)Cc1cccc(C#N)c1` [27/84]: the 50% effective concentration (EC50) in test [1] was less than 0.1 µM; in test [2], 0.1 to 1 µM; in test [3] it was less than 0.1 µM.
Regarding `Cc1nc2cccnn2c1C(=O)N(Cc1ccc(-c2cccc(C(C)(C)C(=O)O)c2)cc1)Cc1ccc(C(F)(F)F)o1` [27/116], the EC50 in test [1] was in the range of 0.1 to 1 µM; in test [2], 1 to 10 µM; in test [3] it was 0.1 to 1 µM.
Regarding `CCc1nc2cnccc2c(C(=O)N(Cc2ccc(-c3cccc(C(C)(C)C(=O)O)c3)cc2)Cc2ccc(C(F)(F)F)o2)c1C` [27/88], the results for the EC50 in test [1], in test [2] and in test [3] were less than 0.1 µM, 0.1 to 1 µM and less than 0.1 µM, respectively.
As for `COc1cc(CN(Cc2ccc(C(F)(F)F)o2)Cc2c(C)ccc3ccccc23)ccc1-c1cc(F)c(CO)c(S(=O)(=O)CC(=O)O)c1` [Example 22, 2-((5-Fluoro-4-(hydroxymethyl)-2′-methoxy-4′-((((2-methylnaphthalen-1-yl)methyl)((5-(trifluoromethyl)furan-2-yl)methyl)amino)methyl)-[1,1′-biphenyl]-3-yl)sulfonyl)acetic acid], the EC50 in test [1] was 1 to 10 µM; in test [2], greater than 10 µM; in test [3], 0.1 to 1 µM.
Taken in the same sequence, the figures for `Cc1nc2cccnc2c(C(=O)N(Cc2ccc(-c3cccc(C(C)(C)C(=O)O)c3)cc2)Cc2ccc(C#N)o2)c1C` [Example 33/1] were less than 0.1 µM, 0.1 to 1 µM and less than 0.1 µM.
Consider `CCc1cc(-c2cncc(C(C)(C)C(=O)O)c2)ccc1CN(Cc1ccc(C(F)(F)F)o1)C(=O)c1c(C)ccc2ccccc12` [27/65], for which the EC50 is less than 0.1 µM in test [1], 0.1 to 1 µM in test [2] and less than 0.1 µM in test [3].
In the case of `CCc1nc2ccncc2c(C(=O)N(Cc2ccc(-c3cccc(C(C)(C)C(=O)O)c3)cc2)Cc2ccc(C(F)(F)F)o2)c1C` [27/89], the EC50 in test [1] lay in the range of 0.1 to 1 µM; in test [2], 1 to 10 µM; in test [3] it was 0.1 to 1 µM.

The values are drawn from US20200131144A1, “AMINE OR (THIO)AMIDE CONTAINING LXR MODULATORS” (Phenex-FXR GmbH, priority 2017, published 2020).
